Values joined by “and” are separate entries in the source; they are usually repeats but may differ in a detail not shown here. Equal values may be shown once. Read-outs that look alike come from different tables or passages of the source.
Key:
[1] = tested on: men with psychogenic male erectile dysfunction (MED); experiment: Pilot Study #6, third phase: home use, reported success of intercourse (Sexual Function questionnaire); format: in vivo, human; details: for Reported Success by Tablet Strength: home use; for Reported Success, Overall: all doses, 20/29
Description: The third phase, a home-use phase, lasted 5 weeks. During this phase, subjects attempted coitus at least once each week after taking a single APO tablet. After each attempt the subject and their partner completed a Sexual Function questionnaire (Table XVII).
During the third phase, subjects had recorded at baseline, their satisfaction, erection, number of attempts, and successful intercourse on a VAS scale. Evaluable subjects first recorded a success rate, then completed VAS for erection results and satisfaction with intercourse following take-home treatment. Success rate was calculated for mg as well as μg/kg body weight doses (males). Several evaluations of the data were made including the male and female responses to treatments. The overall average success rate is 69% with APO treatment which is much higher than the average baseline rate 28% (Tables XXI, XXII).

[2] = cited from earlier work
[3] = tested on: patients with psychogenic impotence
[4] = tested on: men with psychogenic male erectile dysfunction (MED); experiment: Pilot Study #6: safety and tolerance of escalating APO doses (adverse events, serum chemistry, vital signs)
Description: A clinical study of patient tolerance of escalating doses in sublingual tablet administration of APO for the treatment of psychogenic male erectile dysfunction was performed.
In the second phase, subjects returned to the clinic for four visits, each visit one week apart. Subjects received one sublingual administration of either placebo, or 4, 6 and 8 mg APO at each visit. Doses of APO were administered in ascending order with the placebo being randomly assigned for use at one of the four visits. The procedures performed before and after drug administration were the same as those in the first phase.
Fifty males with psychogenic MED were enrolled in this three phase trial. The first aim of this study was to determine the safety and tolerance of APO in the treatment of MED.

[5] = clinical; details: male, human, in vivo; for clearance: Cl
[6] = tested on: men with psychogenic male erectile dysfunction (MED); experiment: Pilot Study #6, third phase: home use, reported success of intercourse (Sexual Function questionnaire); format: in vivo, human; details: 4 or 6 mg APO sublingual tablets
[7] = tested on: patients with psychogenic impotence; details: for Mean (SE) erectile function / Percent (SE) successful erectile function (score at least 16): N 12
[8] = tested on: non-vasculogenic impotent patients; experiment: Dose Evaluation Study: clinical response to sublingual apomorphine tablets before intercourse; details: for Positive Responses % / Positive Responses No.: 20 days
[9] = Durif, F. et al., s.l., 7 × 3 mg tablets, 0.3 mg/kg, 7 subjects
[10] = Durif, F. et al., s.l., 14 × 3 mg tablets, 0.6 mg/kg, 7 subjects
[11] = Gancher, S. T., et al., s.c., 0.02 mg/kg, 5 subjects
[12] = Gancher, S. T., et al., s.l., 3 × 6 mg tablets, 0.25 mg/kg, 5 subjects
[13] = Montastruc, J. L., et al., s.c., 0.04 mg/kg, 9 subjects
[14] = Montastruc, J. L., et al., s.l., 10 × 3 mg tablets, 0.42 mg/kg, 9 subjects
[15] = sublingual tablets 2.5 mg and 5 mg, seven evaluable patients
[16] = sublingual tablets 3, 4, 5 mg (Table I), twelve patients
[17] = 3 mg tablet 20 minutes prior to intercourse, 5 patients
[18] = 4 mg tablet 20 minutes prior to intercourse, 5 patients
[19] = 5 mg tablet 20 minutes prior to intercourse, 10 patients
[20] = 6 mg tablet 20 minutes prior to intercourse, 10 patients
[21] = 7 mg tablet 20 minutes prior to intercourse, 10 patients
[22] = 8 mg tablet 20 minutes prior to intercourse, 10 patients
[23] = 10 mg tablet 20 minutes prior to intercourse, 10 patients

## CN1CCc2cccc3c2[C@H]1Cc1ccc(O)c(O)c1-3 [apomorphine]
[1]; Female group, 4 mg
  Reported Success by Tablet Strength: 5/7 (71.4%)
[1]; Female group, 8 mg
  Reported Success by Tablet Strength: 4/7 (57.1%)
[1]; Female group, 35-50 μg/kg
  Reported Success by Apomorphine Dosage: 3/5 (60.0%)
[1]; Female group, 50-74 μg/kg
  Reported Success by Apomorphine Dosage: 9/11 (81.8%)
[1]; Female group, 50-74 μg/kg, listed as APO
  Reported Success by Apomorphine Dosage: 82%
[1]; Female group, >74 μg/kg
  Reported Success by Apomorphine Dosage: 8/13 (61.5%)
[1]; Female group
  Reported Success, Overall: (69.0%)
[1]; Male group, 4 mg
  Reported Success by Tablet Strength: 5/7 (71.4%)
[1]; Male group, 8 mg
  Reported Success by Tablet Strength: 4/7 (57.1%)
[1]; Male group, 35-50 μg/kg
  Reported Success by Apomorphine Dosage: 4/5 (80.0%)
[1]; Male group, 50-74 μg/kg
  Reported Success by Apomorphine Dosage: 8/11 (72.7%)
[1]; Male group, 50-74 μg/kg, listed as APO
  Reported Success by Apomorphine Dosage: 80%
[1]; Male group, >74 μg/kg
  Reported Success by Apomorphine Dosage: 8/13 (61.5%)
[1]; Male group
  Reported Success, Overall: (69.0%)
[1]; take-home APO treatment, average baseline rate 28%
  overall average success rate: 69%
[2]; Durif, F. et al., Clin. Neuropharm. 16:157-166, s.l., 7 × 3 mg tablets, 0.3 mg/kg, 7 subjects
  Cmax: 7.5 ng/mL
[2]; [9]
  AUC: 929 ng·min/mL
  Cl: 35 mL/min/kg
  MRT: 128 min
  Tmax: 31.5 min
  Vd: 3.4 L/kg
[2]; [10]
  AUC: 2,277 min*ng/ml
  Cl: 30 mL/min/kg
  Cmax: 22.7 ng/mL
  MRT: 125 min
  Tmax: 38.3 min
  Vd: 2.8 L/kg
[2]; Gancher, S. T., et al., Movement Disorders 6:212-216 (1991), s.l., 3 × 6 mg tablets, 0.25 mg/kg, 5 subjects
  Cmax: 14.3 ng/mL
[2]; Gancher, S. T., et al., i.v., […], 5 subjects, *Calculated
  Vd: 0.043* l/kg
[2]; Gancher, S. T., et al., i.v., […], 5 subjects
  Tmax: 6.7 min
[2]; [11]
  AUC: 592.7 ng·min/mL
  Cmax: 19.36 ng/mL
  Tmax: 6.5 min
[2]; [12]
  AUC: 1,057 min*ng/ml
  Tmax: 45 min
[2]; Montastruc, J. L., et al., Clin. Neuropharmacol. 14:432-437 (1991), s.l., 10 × 3 mg tablets, 0.42 mg/kg, 9 subjects
  Cmax: 28 ng/mL
[2]; [13]
  AUC: 837 ng·min/mL
  Cmax: 26 ng/mL
  Tmax: 18 min
[2]; [14]
  AUC: 1,882 min*ng/ml
  Tmax: 41 min
[3]; 2.5 mg dose, patients who failed testing
  yawns per session: one or two
[3]; 5 mg dose
  yawning responses per session: three to five
[3]; sublingual tablet 2.5 mg, the two successful patients
  adverse effects: did not produce adverse effects
[3]; sublingual tablet 5 mg
  adverse effects (nausea, diaphoresis, dizziness, blurred vision, facial flushing, drop in heart rate and blood pressure): produced adverse effects
[3]; [15]
  failures during lab testing: 71%
  successes (score of no less than 16) during lab testing: 28% and 29%
[3]; sublingual tablets 2.5 and 5 mg
  erectile response: produced erectile responses in some patients
[3]; sublingual tablets 2.5 and 5 mg, under the tongue
  time for sublingual tablets to dissolve: five
[3]; the two successful patients, 2.5 mg and 5 mg doses
  yawns: three to five
[4]; 4, 6, 8 mg sublingual, with bradycardia, dizziness, syncope, pallor
  cardiovascular and other adverse events: Hypotension was reported as an adverse event in some subjects
[4]; all administered doses
  incidence of vomiting: less than 3%
  nausea cases considered severe: two
[4]; all administered doses (4, 6, 8 mg sublingual)
  overall incidence of nausea: less than 13 % of the subjects
[4]; except one subject with abnormal liver function of unknown origin
  changes in serum chemistry values and vital signs: no clinically significant changes
[5]; 0.06 mg/kg
  Vd: 2.33 L/kg
[5]; iv, 0.01 mg/kg
  clearance: 72.8 mL/min/kg
  Vd: 3.35 L/kg
[5]; iv, 1 mg, AUC (0-inf)
  AUC(0-inf): 3.45 ng·h/mL
[5]; iv, 1 mg
  clearance: 5100 mL/min
[5]; iv, Cmax
  Cmax: 8.36 ng/mL
IV Administration, mean (Table XII)
  Ke: 0.0237 min⁻¹
IV administration 1 mg, mean, n = 7
  Ke: 0.0237 min⁻¹
male, human, in vivo, 0.114 mg/kg
  Vd: 2.07 L/kg
Sublingual 4 mg dose, individual subjects #1, #3, #6, #7
  Ke: 0.0060 min⁻¹
Sublingual 8 mg Dose, mean (Table XII)
  Ke: 0.0056 min⁻¹
Sublingual administration 8 mg dose, mean, n = 4
  Ke: 0.0056 min⁻¹
[6]
  men with MED in whom erections were caused: 72%
[7]; 3 mg and 4 mg, regardless of stimulus background
  active treatment compared with placebo, mean erectile function: more effective than placebo
[7]; Erotic stimulus, 3 mg
  Mean (SE) erectile function: 18.75 (2.51)
  Percent (SE) successful erectile function (score at least 16): 66.67 (13.61) Percent
[7]; Erotic stimulus, 4 mg
  Mean (SE) erectile function: 19.83 (2.67)
  Percent (SE) successful erectile function (score at least 16): 66.67 (13.61) Percent
[7]; Neutral stimulus, 3 mg
  Mean (SE) erectile function: 11.83 (2.68)
  Percent (SE) successful erectile function (score at least 16): 50.00 (14.43) Percent
[7]; Neutral stimulus, 4 mg
  Mean (SE) erectile function: 13.50 (2.61)
  Percent (SE) successful erectile function (score at least 16): 50.00 (14.43) Percent
[7]; all doses 3, 4, 5 mg
  number of yawns: one or two
[7]; eight successful patients, one to four months
  domestic use, patient reports: good erectile activity and no side effects
[7]; of group of seven
  patients successfully treated among those who had failed a trial of yohimbine HCl: four
[7]; [16]
  failures with apomorphine: 33%
  patients successful with apomorphine: 67%
[8]; [17]
  Positive Responses %: 0%
  Positive Responses No.: 0
[8]; 3 mg tablet, 5 patients
  Nausea %: 0%
  Nausea No.: 0
  Vomiting %: 0%
  Vomiting No.: 0
[8]; [18]
  Positive Responses %: 40%
  Positive Responses No.: 2
[8]; 4 mg tablet, 5 patients
  Nausea %: 20%
  Nausea No.: 1
  Vomiting %: 20%
  Vomiting No.: 1
[8]; [19]
  Positive Responses %: 50%
  Positive Responses No.: 5
[8]; 5 mg tablet, 10 patients
  Nausea %: 20%
  Nausea No.: 2
  Vomiting %: 10%
  Vomiting No.: 1
[8]; [20]
  Positive Responses %: 70%
  Positive Responses No.: 7
[8]; 6 mg tablet, 10 patients
  Nausea %: 20%
  Nausea No.: 2
  Vomiting %: 20%
  Vomiting No.: 2
[8]; [21]
  Positive Responses %: 70%
  Positive Responses No.: 7
[8]; 7 mg tablet, 10 patients
  Nausea %: 20%
  Nausea No.: 2
  Vomiting %: 20%
  Vomiting No.: 2
[8]; [22]
  Positive Responses %: 70%
  Positive Responses No.: 7
[8]; 8 mg tablet, 10 patients
  Nausea %: 30%
  Nausea No.: 3
  Vomiting %: 30%
  Vomiting No.: 3
[8]; [23]
  Positive Responses %: 80%
  Positive Responses No.: 8
[8]; 10 mg tablet, 10 patients
  Nausea %: 40%
  Nausea No.: 4
  Vomiting %: 40%
  Vomiting No.: 4
